What was measured:
Assay in all cases: KinomeScan kinase profiling
Format in all cases: binding
WEE1 = molecular target: T1, WEE1 (Homo sapiens, UniProt P30291)
T1 construct: purchased Ambit Biosciences Corp (KinomeScan); host or cells: E. coli host derived from the BL21 strain (T7 phage lysate)
From the text: (§1) The kinases were ABL1(F317L), ABL1(H396P), ABL1(Q252H), ABL1(Y253F), ADCK3, ADCK4, ALK, ARK5, AXL, BLK, BRSK2, CDK7, CIT, CLK4, CSNK1D, CSNK1E, DAPK1, DAPK3, DCAMKL3, DMPK, EGFR, EGFR(E746-A750DEL), EGFR(G719C), EGFR(G719S), EGFR(L747-E749DEL, A750P), EGFR(L747-S752 DEL, P753S), EGFR(L747-T751DEL, Sin), EGFR(L858R), EGFR(L861Q), EGFR(S752-I759DEL), EPHA5, EPHA6, ERBB2, ERBB4, ERK3, ERK4, FGR, FLT3(D835H), FLT3(D835Y), FLT3(ITD), FLT3(N841 I), FRK, GAK, GCN2(KIN.DOM.2, S808G), HCK, IRAK3, JAK1(KIN.DOM.1), KIT, KIT(D816V), KIT(V559D), KIT(V559D,T670I), LCK, LOK, LTK, LYN, MAP3K3, MAP4K4, MAP4K5, MET, MINK, MKNK1, MKNK2, MST4, MYLK2, PDGFRB, PIM3, PKN2, PRKD1, PRKD2, PRKD3, PRKG1, RIPK2, RPS6KA4(KIN.DOM.2), SIK2, SLK, SNARK, SRC, STK36, TNIK, TNNI3K, TYK2(KIN.DOM.2).
(§2) Kinase assays: Assays were performed as described in Fabian et al. (2005) Nature Biotechnology, vol. 23, p. 329. Kinase-tagged T7 phage strains were grown in parallel in 24 or 96-well blocks in an E. coli host derived from the BL21 strain. E. coli were grown to log-phase and infected with T7 phage from a frozen stock (multiplicity of infection ˜0.1) and incubated with shaking at 32° C. until lysis (˜90 minutes). The lysates were centrifuged and filtered to remove cell debris. […] The liganded beads were blocked with excess biotin and washed with blocking buffer (SeaBlock (Pierce), 1% BSA, 0.05% Tween 20, 1 mM DTT) to remove unbound ligand and to reduce non-specific phage binding.
(§3) Test compounds were prepared as 40× stocks in DMSO and diluted into the aqueous environment. 2.5% DMSO was added to control assays lacking a test compound. All reactions were performed in polystyrene 96-well plates that had been pretreated with blocking buffer in a final volume of 0.04 ml. […] The phage titer in the eluates was measured by quantitative PCR.

KIT (V559D, V654A) = molecular target: T2, KIT (V559D, V654A) (Homo sapiens, UniProt P10721, V559D/V654A)
T2 construct: host or cells: T7 phage in E. coli host derived from BL21
From the text: as §1, §2, §3

KIT = molecular target: T3, KIT (Homo sapiens, UniProt P10721)
T3 construct: host or cells: T7 phage in E. coli host derived from BL21
From the text: as §1, §2, §3

[1] = molecular target: T4, RPS6KA4 (Kin.Dom.-1-N-terminal) (Homo sapiens, UniProt O75676)
T4 construct: RPS6KA4 (Kin.Dom.-1-N-terminal); host or cells: E. coli host derived from BL21, T7 phage lysate
T4 sequence (O75676 33-301 limits assumed): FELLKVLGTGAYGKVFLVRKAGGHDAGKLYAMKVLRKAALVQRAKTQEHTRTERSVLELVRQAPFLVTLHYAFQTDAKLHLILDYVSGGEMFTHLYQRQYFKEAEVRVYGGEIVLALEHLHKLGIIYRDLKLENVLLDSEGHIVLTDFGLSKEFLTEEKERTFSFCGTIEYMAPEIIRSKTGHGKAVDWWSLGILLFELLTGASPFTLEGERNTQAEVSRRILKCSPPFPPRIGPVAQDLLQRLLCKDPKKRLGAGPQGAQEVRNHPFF
From the text: as §1, §2, §3

CAMKK1 = molecular target: T5, CAMKK1 (Homo sapiens, UniProt Q8N5S9)
T5 construct: host or cells: T7 phage in E. coli (BL21-derived)
From the text: as §1, §2, §3

FAK = molecular target: T6, FAK (Homo sapiens, UniProt Q05397)
T6 construct: host or cells: E. coli host derived from BL21, T7 phage lysate
T6 sequence (Q05397 whole entry): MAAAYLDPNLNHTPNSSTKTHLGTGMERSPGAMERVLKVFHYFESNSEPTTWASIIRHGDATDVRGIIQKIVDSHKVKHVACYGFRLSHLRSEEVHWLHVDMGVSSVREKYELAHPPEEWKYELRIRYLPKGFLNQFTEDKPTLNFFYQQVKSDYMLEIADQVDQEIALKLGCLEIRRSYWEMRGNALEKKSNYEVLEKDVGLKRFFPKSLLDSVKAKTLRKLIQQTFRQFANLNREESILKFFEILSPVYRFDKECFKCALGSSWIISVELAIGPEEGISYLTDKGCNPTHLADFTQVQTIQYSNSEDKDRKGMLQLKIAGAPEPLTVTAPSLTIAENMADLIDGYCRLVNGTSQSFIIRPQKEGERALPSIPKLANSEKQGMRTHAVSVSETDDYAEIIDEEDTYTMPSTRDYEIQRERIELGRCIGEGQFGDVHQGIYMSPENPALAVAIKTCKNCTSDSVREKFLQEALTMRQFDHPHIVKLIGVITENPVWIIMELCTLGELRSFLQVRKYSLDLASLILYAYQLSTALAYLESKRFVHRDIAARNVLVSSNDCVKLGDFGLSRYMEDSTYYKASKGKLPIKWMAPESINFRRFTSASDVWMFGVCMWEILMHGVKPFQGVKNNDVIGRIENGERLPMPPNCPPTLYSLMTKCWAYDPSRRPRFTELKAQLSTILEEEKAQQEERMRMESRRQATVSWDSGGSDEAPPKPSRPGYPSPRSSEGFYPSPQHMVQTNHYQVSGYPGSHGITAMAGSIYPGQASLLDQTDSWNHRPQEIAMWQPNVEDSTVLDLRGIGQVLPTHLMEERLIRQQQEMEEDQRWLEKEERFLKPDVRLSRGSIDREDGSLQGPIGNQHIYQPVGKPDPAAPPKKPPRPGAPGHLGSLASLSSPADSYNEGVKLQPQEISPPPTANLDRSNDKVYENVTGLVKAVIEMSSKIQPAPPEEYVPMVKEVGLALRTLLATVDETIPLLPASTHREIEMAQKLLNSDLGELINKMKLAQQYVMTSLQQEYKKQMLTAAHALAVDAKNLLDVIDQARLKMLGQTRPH
From the text: as §1, §2, §3

[2] = molecular target: T7, JAK1 (JH2domain-pseudokinase) (Homo sapiens, UniProt P23458)
T7 construct: JAK1 (JH2domain-pseudokinase); host or cells: T7 phage in E. coli host derived from BL21
From the text: as §1, §2, §3

GCN2 (Kin.Dom.2.S808G) = molecular target: T8, GCN2 (Kin.Dom.2.S808G) (Homo sapiens, UniProt Q9P2K8, S808G)
T8 construct: GCN2(KIN.DOM.2, S808G); host or cells: E. coli host derived from BL21, infected with T7 phage
T8 sequence (Q9P2K8 590-1001 S808G limits assumed): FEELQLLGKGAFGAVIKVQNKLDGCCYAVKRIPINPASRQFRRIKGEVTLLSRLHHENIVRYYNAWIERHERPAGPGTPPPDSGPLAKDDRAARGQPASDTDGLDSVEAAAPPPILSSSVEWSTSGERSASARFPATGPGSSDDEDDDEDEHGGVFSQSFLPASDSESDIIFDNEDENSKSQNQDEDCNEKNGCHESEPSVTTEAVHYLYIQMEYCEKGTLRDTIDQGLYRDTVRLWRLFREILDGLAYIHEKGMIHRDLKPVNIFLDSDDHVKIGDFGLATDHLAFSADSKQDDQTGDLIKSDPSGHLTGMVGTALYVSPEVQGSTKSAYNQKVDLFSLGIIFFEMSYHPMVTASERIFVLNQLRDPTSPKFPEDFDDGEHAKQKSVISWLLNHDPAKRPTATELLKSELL
From the text: as §1, §2, §3

FLT3 (D835H) = molecular target: T9, FLT3 (D835H) (Homo sapiens, UniProt P36888, D835H)
T9 construct: host or cells: E. coli host derived from BL21, infected with T7 phage
From the text: as §1, §2, §3

TYRO3 = molecular target: T10, TYRO3 (Homo sapiens, UniProt Q06418)
T10 construct: purchased Ambit Biosciences Corp (KinomeScan); host or cells: E. coli host derived from the BL21 strain (T7 phage lysate)
From the text: as §1, §2, §3

PIK3CB = molecular target: T11, PIK3CB (Homo sapiens, UniProt P42338)
T11 construct: host or cells: E. coli host derived from the BL21 strain, infected with T7 phage
T11 sequence (P42338 whole entry): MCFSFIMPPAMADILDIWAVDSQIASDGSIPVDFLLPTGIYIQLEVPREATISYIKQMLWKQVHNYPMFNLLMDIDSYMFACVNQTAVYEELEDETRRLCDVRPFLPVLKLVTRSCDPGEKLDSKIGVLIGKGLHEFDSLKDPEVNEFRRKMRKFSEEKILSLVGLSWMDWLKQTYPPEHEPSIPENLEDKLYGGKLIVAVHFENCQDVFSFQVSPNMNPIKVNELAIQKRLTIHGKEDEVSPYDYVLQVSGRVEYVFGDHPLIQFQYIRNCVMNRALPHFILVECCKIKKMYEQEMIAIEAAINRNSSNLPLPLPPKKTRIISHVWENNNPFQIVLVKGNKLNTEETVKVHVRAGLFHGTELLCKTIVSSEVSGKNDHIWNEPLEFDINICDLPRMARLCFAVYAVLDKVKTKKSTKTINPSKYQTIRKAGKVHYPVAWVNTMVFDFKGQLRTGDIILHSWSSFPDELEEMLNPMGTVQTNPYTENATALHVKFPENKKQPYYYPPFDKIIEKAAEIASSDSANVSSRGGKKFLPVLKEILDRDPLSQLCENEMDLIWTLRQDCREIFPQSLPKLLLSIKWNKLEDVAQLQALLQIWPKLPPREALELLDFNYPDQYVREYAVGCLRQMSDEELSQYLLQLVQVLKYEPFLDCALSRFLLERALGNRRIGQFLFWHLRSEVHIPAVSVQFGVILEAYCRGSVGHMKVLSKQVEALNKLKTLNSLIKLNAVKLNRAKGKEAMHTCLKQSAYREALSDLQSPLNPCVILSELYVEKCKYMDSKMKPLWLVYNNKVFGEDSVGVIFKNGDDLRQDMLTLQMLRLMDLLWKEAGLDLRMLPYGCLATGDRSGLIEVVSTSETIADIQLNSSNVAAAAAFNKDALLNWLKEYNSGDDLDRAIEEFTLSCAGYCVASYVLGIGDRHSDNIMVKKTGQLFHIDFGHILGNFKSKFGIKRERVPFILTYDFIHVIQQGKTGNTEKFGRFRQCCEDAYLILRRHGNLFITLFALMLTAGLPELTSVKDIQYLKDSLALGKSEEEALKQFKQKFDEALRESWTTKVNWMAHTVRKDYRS
From the text: as §1, §2, §3

[3] = molecular target: T12, EGFR (L747-S752del, P753S) (Homo sapiens, UniProt P00533, DEL747-752/P753S)
T12 construct: purchased Ambit Biosciences Corp (KinomeScan); host or cells: T7 phage in E. coli host derived from BL21
From the text: as §1, §2, §3

INSRR = molecular target: T13, INSRR (Homo sapiens, UniProt P14616)
T13 construct: host or cells: T7 phage in E. coli host derived from BL21
From the text: as §1, §2, §3

ABL1 (Y253F) = molecular target: T14, ABL1 (Y253F) (Homo sapiens, UniProt P00519, Y253F)
T14 construct: host or cells: E. coli host derived from BL21 (T7 phage lysate)
From the text: as §1, §2, §3

IGF1R = molecular target: T15, IGF1R (Homo sapiens, UniProt P08069)
T15 construct: host or cells: T7 phage in E. coli host derived from BL21
T15 sequence (P08069 31-1367): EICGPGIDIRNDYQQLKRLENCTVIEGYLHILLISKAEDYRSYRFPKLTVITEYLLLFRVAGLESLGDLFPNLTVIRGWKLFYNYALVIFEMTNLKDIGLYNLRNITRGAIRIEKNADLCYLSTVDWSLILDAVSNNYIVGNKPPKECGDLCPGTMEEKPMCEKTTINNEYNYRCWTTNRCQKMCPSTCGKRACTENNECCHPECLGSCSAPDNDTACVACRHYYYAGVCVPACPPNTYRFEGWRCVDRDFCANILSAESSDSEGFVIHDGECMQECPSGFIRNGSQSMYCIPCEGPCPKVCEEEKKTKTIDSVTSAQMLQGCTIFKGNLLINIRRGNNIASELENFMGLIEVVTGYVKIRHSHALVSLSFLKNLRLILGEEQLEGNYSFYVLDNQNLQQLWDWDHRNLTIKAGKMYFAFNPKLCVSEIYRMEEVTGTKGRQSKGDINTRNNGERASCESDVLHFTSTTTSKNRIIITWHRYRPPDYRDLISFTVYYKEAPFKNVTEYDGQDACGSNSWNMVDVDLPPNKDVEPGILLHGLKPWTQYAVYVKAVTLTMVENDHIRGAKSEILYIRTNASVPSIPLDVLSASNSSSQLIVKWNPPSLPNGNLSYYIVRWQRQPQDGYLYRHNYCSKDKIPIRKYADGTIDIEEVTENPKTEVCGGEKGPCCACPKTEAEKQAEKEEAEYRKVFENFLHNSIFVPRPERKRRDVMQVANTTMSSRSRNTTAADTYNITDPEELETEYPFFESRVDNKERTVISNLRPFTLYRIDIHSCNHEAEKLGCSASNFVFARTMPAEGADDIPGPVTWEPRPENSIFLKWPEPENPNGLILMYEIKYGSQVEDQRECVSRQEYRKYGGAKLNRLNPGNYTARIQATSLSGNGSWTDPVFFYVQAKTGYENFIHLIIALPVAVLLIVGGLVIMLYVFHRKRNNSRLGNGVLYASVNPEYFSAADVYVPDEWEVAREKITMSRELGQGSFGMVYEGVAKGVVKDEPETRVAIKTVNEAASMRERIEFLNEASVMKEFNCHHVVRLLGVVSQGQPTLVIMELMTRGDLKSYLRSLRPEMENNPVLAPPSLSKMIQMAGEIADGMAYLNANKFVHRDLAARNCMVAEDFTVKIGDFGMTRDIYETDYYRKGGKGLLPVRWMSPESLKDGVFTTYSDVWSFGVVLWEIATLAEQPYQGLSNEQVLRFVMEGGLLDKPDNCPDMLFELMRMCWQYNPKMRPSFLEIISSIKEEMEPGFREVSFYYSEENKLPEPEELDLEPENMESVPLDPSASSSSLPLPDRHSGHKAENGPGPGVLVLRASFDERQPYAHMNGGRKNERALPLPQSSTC
From the text: as §1, §2, §3

PIK3CA (E545K) = molecular target: T16, PIK3CA (E545K) (Homo sapiens, UniProt P42336, E545K)
T16 construct: host or cells: E. coli host derived from the BL21 strain, infected with T7 phage
From the text: as §1, §2, §3

ITK = molecular target: T17, ITK (Homo sapiens, UniProt Q08881)
T17 construct: host or cells: T7 phage in E. coli host derived from BL21
From the text: as §1, §2, §3

RIPK1 = molecular target: T18, RIPK1 (Homo sapiens, UniProt Q13546)
T18 construct: host or cells: E. coli host derived from BL21, T7 phage lysate
From the text: as §1, §2, §3

p38-beta = molecular target: T19, p38-beta (Homo sapiens, UniProt Q15759)
T19 construct: host or cells: E. coli host derived from the BL21 strain, infected with T7 phage
T19 sequence (Q15759 whole entry): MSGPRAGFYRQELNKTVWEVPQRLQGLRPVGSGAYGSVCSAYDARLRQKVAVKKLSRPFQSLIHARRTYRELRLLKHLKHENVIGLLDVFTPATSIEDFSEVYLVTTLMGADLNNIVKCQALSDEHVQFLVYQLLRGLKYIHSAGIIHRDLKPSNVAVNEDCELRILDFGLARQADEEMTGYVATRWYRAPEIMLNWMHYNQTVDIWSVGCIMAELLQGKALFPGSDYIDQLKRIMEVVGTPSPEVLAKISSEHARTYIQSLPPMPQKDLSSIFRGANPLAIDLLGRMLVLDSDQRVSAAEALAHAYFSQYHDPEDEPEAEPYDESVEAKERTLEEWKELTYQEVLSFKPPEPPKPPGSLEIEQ
From the text: as §1, §2, §3

CLK2 = molecular target: T20, CLK2 (Homo sapiens, UniProt P49760)
T20 construct: host or cells: T7 phage in E. coli (BL21-derived)
T20 sequence (P49760 whole entry): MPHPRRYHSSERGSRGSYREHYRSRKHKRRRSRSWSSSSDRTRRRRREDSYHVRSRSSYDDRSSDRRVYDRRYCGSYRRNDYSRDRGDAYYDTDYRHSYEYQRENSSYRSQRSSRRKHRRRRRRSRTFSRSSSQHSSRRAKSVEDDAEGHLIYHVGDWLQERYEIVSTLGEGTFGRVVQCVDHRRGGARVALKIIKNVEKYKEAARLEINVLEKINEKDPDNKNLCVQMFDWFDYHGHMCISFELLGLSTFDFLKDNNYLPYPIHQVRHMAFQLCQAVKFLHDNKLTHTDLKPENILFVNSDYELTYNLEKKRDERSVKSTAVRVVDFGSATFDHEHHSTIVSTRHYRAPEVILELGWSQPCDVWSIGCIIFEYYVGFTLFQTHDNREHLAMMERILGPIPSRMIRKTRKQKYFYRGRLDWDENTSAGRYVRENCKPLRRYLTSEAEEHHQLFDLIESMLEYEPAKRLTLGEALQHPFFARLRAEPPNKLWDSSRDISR
From the text: as §1, §2, §3

RET = molecular target: T21, RET (Homo sapiens, UniProt P07949)
T21 construct: host or cells: E. coli host derived from BL21, T7 phage lysate
From the text: as §1, §2, §3

## C#Cc1cccc(Nc2ncnc3cc(OC)c(OCCCN4CCOCC4)cc23)c1 [NRC-2694, N-(3-ethylnylphenyl)-7-methoxy-6-[3-(4-morpholinyl)propoxy]-4-quinazolinamine]
WEE1
  % Ctrl @ 10000 nM: 74 % Ctrl
KIT (V559D, V654A)
  % Ctrl @ 10000 nM: 47 % Ctrl
KIT
  % Ctrl @ 10000 nM: 26 % Ctrl
[1]
  % Ctrl @ 10000 nM: 84 % Ctrl
CAMKK1
  % Ctrl @ 10000 nM: 71 % Ctrl
FAK
  % Ctrl @ 10000 nM: 85 % Ctrl
[2]
  % Ctrl @ 10000 nM: 81 % Ctrl
GCN2 (Kin.Dom.2.S808G)
  % Ctrl @ 10000 nM: 12 % Ctrl
FLT3 (D835H)
  % Ctrl @ 10000 nM: 8.1 % Ctrl
TYRO3
  % Ctrl @ 10000 nM: 42 % Ctrl
PIK3CB
  % Ctrl @ 10000 nM: 100 % Ctrl
[3]
  % Ctrl @ 10000 nM: 0.1 % Ctrl
INSRR
  % Ctrl @ 10000 nM: 79 % Ctrl
ABL1 (Y253F)
  % Ctrl @ 10000 nM: 23 % Ctrl
IGF1R
  % Ctrl @ 10000 nM: 74 % Ctrl
PIK3CA (E545K)
  % Ctrl @ 10000 nM: 100 % Ctrl
ITK
  % Ctrl @ 10000 nM: 82 % Ctrl
RIPK1
  % Ctrl @ 10000 nM: 100 % Ctrl
p38-beta
  % Ctrl @ 10000 nM: 100 % Ctrl
CLK2
  % Ctrl @ 10000 nM: 64 % Ctrl
RET
  % Ctrl @ 10000 nM: 65 % Ctrl
